Eleven molecules from patent US20260130932A1, “NOVEL COMBINATION OF RIFAXIMIN AND CLARITHROMYCIN FOR TREATING MULTIDRUG-RESISTANT MYCOBACTERIUM ABSCESSUS” (priority 2022, published 2026) can be followed below.

Structures can show the parent of a compound that is named as a salt.

The test system of assay [1] is M. abscessus ATCC 19977 (pre-induced). Put plainly: microbe, parasite or virus in culture. Format: cell-based, Mycobacterium abscessus. To be noted: for Percentage of bacterial growth: clarithromycin 0 μg/ml. The method, then:
The FICI was calculated by summing the FIC of Rfx and the FIC of Clr. FIC of Clr is the MIC of Clr in the presence of Rfx divided by MIC of Clr alone. FIC of Rfx was similarly calculated.
To characterize the interaction between Clr and Rfx, checkerboard synergy assays were performed on pre-induced Clr-resistant M. abscessus. The fractional inhibitory concentration index (FICI) obtained from the checkerboard assay defines whether the interaction between the two compounds is either synergistic (FICI≤0.5), additive (0.5<FICI≤1.0), indifferent (1.0<FICI≤4.0), or antagonistic (FICI >4.0) (Noel D J, Keevil C W, Wilks S A. 2021. MBio 12).

Another assay concerns M. abscessus strain M422. In words: Single-concentration assay with and without clarithromycin (hit validation). The conditions noted are these: for % inhibition with 0.5 μg/ml Clr: compound combined with clarithromycin; for % inhibition with compound alone: without clarithromycin. The class given is cell-based, Mycobacterium abscessus. On the procedure: For checkerboard synergy assay, 3 M. abscessus strains were used: M. abscessus ATCC 19977, M. abscessus strains M422 and M110, while bactericidal activity determination and the zebrafish study were performed with M. abscessus ATCC 19977. All three strains of M. abscessus harbor the inducible clarithromycin resistance-conferring erm(41) T28 sequevar. M. abscessus strain M422 and M110 were provided by Dr. Jeanette Teo, National University Hospital, Singapore (Chew K L, et al., 2017. J Med Microbiol 66: 1443-1447). M. abscessus ATCC 19977 and M. avium ATCC 700898 were acquired from American Type Culture Collection (ATCC).
Primary screening was carried out in 96-well flat-bottom Corning Costar cell culture plates at 50 μM compound along with 4 μg/ml of Clr in a starting inoculum of pre-induced M. abscessus cells at OD600 of 0.005 in a final volume of 100 μl. The plates were put in an airtight container with moist paper towels and incubated for 4 d at 30° C. The cultures in the wells were resuspended before OD600 was read in a BioTek Synergy 4 plate reader.
To start the validation process, the top 10 compounds with >90% growth inhibition were chose to perform a single-concentration assay, with and without clarithromycin. Finally, the inventors obtained 7 compounds that potentiated Clr efficacy.

Take `C[C@@H](O)[C@H]1C(=O)N2C(C(=O)O)=C(SCCN=CN)C[C@H]12` [imipenem]: the “Percentage of bacterial growth” value in assay [1] (partner antibiotic 1 μg/ml) is listed as 86.9%; in assay [1] (partner antibiotic 2 μg/ml) it was 93.4%; in assay [1] (partner antibiotic 4 μg/ml) it was 58.5%; in assay [1] (partner antibiotic 8 μg/ml), 78.5%; in assay [1] (partner antibiotic 16 μg/ml) it was 62.1%; in assay [1] (partner antibiotic 32 μg/ml), 38.3%. Also, the “Percentage of bacterial growth” value in assay [1] (partner antibiotic 64 μg/ml) was 16.6%.

Turning to `CC(=O)OC[C@H]1O[C@@H]([S-])[C@H](OC(C)=O)[C@@H](OC(C)=O)[C@@H]1OC(C)=O.CCP(CC)CC.[Au+]` [Auranofin], in the assay with M. abscessus strain M422, the “% inhibition with 0.5 μg/ml Clr” value turned out to be 98.5% and the “% inhibition with compound alone” value was found to be 86.9%.

For `OB1OCc2cc(F)ccc21` [AN-2690], in the assay with M. abscessus strain M422, the “% inhibition with 0.5 μg/ml Clr” value is 96.7% and the “% inhibition with compound alone” value was found to be 80.4%.

Take `CO/N=C(\C(=O)N[C@@H]1C(=O)N2C(C(=O)O)=C(COC(C)=O)CS[C@H]12)c1csc(N)n1` [Cefotaxime (sodium salt), Cefotaxime]: in the assay on M. abscessus strain M422, the “% inhibition with 0.5 μg/ml Clr” value was 98.5% and the “% inhibition with compound alone” value stood at 86.7%.

Consider `CN(C)c1cc(NC(=O)CNC(C)(C)C)c(O)c2c1C[C@H]1C[C@H]3[C@H](N(C)C)C(O)=C(C(N)=O)C(=O)[C@@]3(O)C(O)=C1C2=O` [tigecycline], for which the “concentration at which synergistic effects with clarithromycin are exhibited” value in assay [1] (Table 3) is no less than 16 µg/mL. The “Percentage of bacterial growth” value in assay [1] (partner antibiotic 1 μg/ml) is 64.2%; in assay [1] (partner antibiotic 2 μg/ml), 74.2%; in assay [1] (partner antibiotic 4 μg/ml) it was 77.8%; in assay [1] (partner antibiotic 8 μg/ml) it was 67.0%; in assay [1] (partner antibiotic 16 μg/ml), 39.3%; in assay [1] (partner antibiotic 32 μg/ml), 22.4%. For the same molecule, the “Percentage of bacterial growth” value in assay [1] (partner antibiotic 64 μg/ml) is given as 10.1%. Besides, the FICI in assay [1] (clarithromycin with a known partner antibiotic, each 0-64 μg/ml) was found to be 0.25.

Regarding `CO[C@@H]1[C@@H](OC(N)=O)[C@@H](O)[C@H](Oc2ccc3c(O)c(NC(=O)c4ccc(O)c(CC=C(C)C)c4)c(=O)oc3c2C)OC1(C)C` [Novobiocin (Sodium), Novobiocin], in the assay with M. abscessus strain M422, the “% inhibition with 0.5 μg/ml Clr” value is listed as 99.7% and the “% inhibition with compound alone” value came out at 84.1%.

For the molecule `CC(=O)NC[C@H]1CN(c2ccc(N3CCSCC3)c(F)c2)C(=O)O1` [Sutezolid], in the assay on M. abscessus strain M422, the “% inhibition with 0.5 μg/ml Clr” value is reported as 92.8% and the “% inhibition with compound alone” value came to 80.4%.

Consider `Cn1nnc(-c2ccc(-c3ccc(N4C[C@H](CO)OC4=O)cc3F)cn2)n1` [Tedizolid], for which, in the assay with M. abscessus strain M422, the “% inhibition with 0.5 μg/ml Clr” value amounted to 99.1% and the “% inhibition with compound alone” value came out at 85.2%.

oritavancin diphosphate: the “Percentage of bacterial growth” value in assay [1] (partner antibiotic 1 μg/ml) came out at 68.0%; in assay [1] (partner antibiotic 2 μg/ml) it was 59.1%; in assay [1] (partner antibiotic 4 μg/ml) it was 51.1%; in assay [1] (partner antibiotic 8 μg/ml), 46.8%; in assay [1] (partner antibiotic 16 μg/ml), 40.9%; in assay [1] (partner antibiotic 32 μg/ml), 32.2%. Besides, the “Percentage of bacterial growth” value in assay [1] (partner antibiotic 64 μg/ml) was 26.1%.

With `COc1c(N2C[C@@H]3CCCN[C@@H]3C2)c(F)cc2c(=O)c(C(=O)O)cn(C3CC3)c12` [moxifloxacin], the “Percentage of bacterial growth” value in assay [1] (partner antibiotic 1 μg/ml) is listed as 107.8%; in assay [1] (partner antibiotic 2 μg/ml), 122.8%; in assay [1] (partner antibiotic 4 μg/ml), 86.4%; in assay [1] (partner antibiotic 8 μg/ml) it was 51.2%; in assay [1] (partner antibiotic 16 μg/ml), 13.4%; in assay [1] (partner antibiotic 32 μg/ml), 7.4%. The “Percentage of bacterial growth” value in assay [1] (partner antibiotic 64 μg/ml) is reported as 0.6%.

On to `CN[C@H](CC(C)C)C(=O)N[C@H]1C(=O)N[C@@H](CC(N)=O)C(=O)N[C@H]2C(=O)N[C@H]3C(=O)N[C@H](C(=O)N[C@H](C(=O)O)c4cc(O)cc(O)c4-c4cc3ccc4O)[C@H](O)c3ccc(c(Cl)c3)Oc3cc2cc(c3O[C@@H]2O[C@H](CO)[C@@H](O)[C@H](O)[C@H]2O[C@H]2C[C@](C)(N)[C@H](O)[C@H](C)O2)Oc2ccc(cc2Cl)[C@H]1O` [vancomycin], for which the “Percentage of bacterial growth” value in assay [1] (partner antibiotic 1 μg/ml) worked out at 103.7%; in assay [1] (partner antibiotic 2 μg/ml) it was 102.0%; in assay [1] (partner antibiotic 4 μg/ml) it was 105.7%; in assay [1] (partner antibiotic 8 μg/ml), 91.7%; in assay [1] (partner antibiotic 16 μg/ml) it was 90.8%; in assay [1] (partner antibiotic 32 μg/ml) it was 86.6%. For the same molecule, the “Percentage of bacterial growth” value in assay [1] (partner antibiotic 64 μg/ml) came out at 83.1%.
